What all share (format): cell-based
One assay concerns the target hGLP-1R (Homo sapiens, UniProt P43220). In words: Functional cAMP formation (HTRF) in HEK-293 clonal cells expressing hGLP-1R, 0.1% bovine casein, without or with 1.0% human serum albumin. Further details: expressed in transfected cells. The conditions noted are these: for EC50: geometric mean, read-out: hGLP-1R EC50, nM (SEM, n); for Emax: 0.1% bovine casein, arithmetic mean, read-out: hGLP-1R Emax, % ± SEM. A digest of the protocol:
(§1)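 Cells were stimulated with peptide for 30 min at 37° C, then intracellular cAMP was measured by competitive HTRF (665/620 nm ratio) and converted to nM using a cAMP standard curve. Relative EC50 and Emax came from four-parameter logistic fits of percent maximal response against peptide concentration.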

A further assay concerns the target T1, hGCGR (Homo sapiens, UniProt P47871).
T1 construct: expressed in transfected cells
Description: Functional cAMP formation (HTRF) in HEK-293 clonal cells expressing hGCGR, 0.1% bovine casein, without or with 1.0% human serum albumin. The conditions noted are these: geometric mean, read-out: hGCGR EC50, nM (SEM, n). A digest of the protocol:
as §1

The target of another assay is T2, hGIPR (Homo sapiens, UniProt P48546).
T2 construct: expressed in transfected cells
T2 sequence (P48546 22-466): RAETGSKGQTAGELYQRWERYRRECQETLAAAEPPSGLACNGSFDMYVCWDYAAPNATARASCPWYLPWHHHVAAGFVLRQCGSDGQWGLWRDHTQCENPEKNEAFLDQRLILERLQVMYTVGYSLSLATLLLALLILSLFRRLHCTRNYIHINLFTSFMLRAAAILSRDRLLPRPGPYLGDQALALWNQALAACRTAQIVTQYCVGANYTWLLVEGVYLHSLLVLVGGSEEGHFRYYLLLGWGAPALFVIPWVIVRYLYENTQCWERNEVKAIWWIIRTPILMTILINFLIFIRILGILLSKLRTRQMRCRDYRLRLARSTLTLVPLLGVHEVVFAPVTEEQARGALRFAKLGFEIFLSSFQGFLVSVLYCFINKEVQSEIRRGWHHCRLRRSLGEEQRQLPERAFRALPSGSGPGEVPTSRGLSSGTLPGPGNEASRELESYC
Description: Functional cAMP formation (HTRF) in HEK-293 clonal cells expressing hGIPR, 0.1% bovine casein, without or with 1.0% human serum albumin. The conditions noted are these: for EC50: geometric mean, read-out: hGIPR EC50, nM (SEM, n); for Emax: read-out: hGIPR Emax, % ± SEM. A digest of the protocol: as §1

Where [1] appears, read: 0.1% bovine casein and 1.0% human serum albumin, 37° C.
[2] abbreviates: cAMP, 37° C., 0.1% bovine casein (no human serum albumin).
Where [3] appears, read: cAMP, incubated at 37° C., 0.1% bovine casein (no human serum albumin).

Read-outs that look alike come from different tables or passages of the source. *1 amine or outer side, *2 acyl side, *3 side chain or, on linkers, in order; H or OH if unused. Where a SMILES comes first, the peptide text is derived from it. Side-chain parts run from the residue outwards. [ ]: non-standard residue; d: D form. The star is where a group is joined. αMePhe(2-F) = C[C@](N)(Cc1ccccc1F)C(=O)O; γGlu = O=C(O)[C@H](CCC(=O)[*:2])N[*:1]; C14 diacid = O=C(O)CCCCCCCCCCCCC(=O)*; εLys = N[C@@H](CCCCN[*:1])C(=O)[*:2]; αMeY = C[C@](N)(Cc1ccc(O)cc1)C(=O)O; 4Pal = N[C@@H](Cc1ccncc1)C(=O)O; αMeL = CC(C)C[C@](C)(N)C(=O)O; Lauroyl = CCCCCCCCCCCC(=O)*; Orn = NCCC[C@H](N)C(=O)O; AEEA = NCCOCCOCC(=O)O; Aib = CC(C)(N)C(=O)O

T1 sequence (P47871 26-477): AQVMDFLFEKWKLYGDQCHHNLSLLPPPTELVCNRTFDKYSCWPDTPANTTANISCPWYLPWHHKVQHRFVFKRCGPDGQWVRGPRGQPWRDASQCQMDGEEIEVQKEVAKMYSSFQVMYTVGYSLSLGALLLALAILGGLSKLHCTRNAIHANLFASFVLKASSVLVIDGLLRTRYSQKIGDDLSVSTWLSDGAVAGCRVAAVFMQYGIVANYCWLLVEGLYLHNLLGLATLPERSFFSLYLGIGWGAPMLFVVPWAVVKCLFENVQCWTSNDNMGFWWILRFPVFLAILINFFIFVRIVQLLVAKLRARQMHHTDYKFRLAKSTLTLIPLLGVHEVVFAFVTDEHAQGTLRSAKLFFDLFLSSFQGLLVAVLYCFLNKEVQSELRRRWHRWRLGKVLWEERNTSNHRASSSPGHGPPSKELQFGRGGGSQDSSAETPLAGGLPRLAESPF
Sequence of hGLP-1R (P43220 24-463): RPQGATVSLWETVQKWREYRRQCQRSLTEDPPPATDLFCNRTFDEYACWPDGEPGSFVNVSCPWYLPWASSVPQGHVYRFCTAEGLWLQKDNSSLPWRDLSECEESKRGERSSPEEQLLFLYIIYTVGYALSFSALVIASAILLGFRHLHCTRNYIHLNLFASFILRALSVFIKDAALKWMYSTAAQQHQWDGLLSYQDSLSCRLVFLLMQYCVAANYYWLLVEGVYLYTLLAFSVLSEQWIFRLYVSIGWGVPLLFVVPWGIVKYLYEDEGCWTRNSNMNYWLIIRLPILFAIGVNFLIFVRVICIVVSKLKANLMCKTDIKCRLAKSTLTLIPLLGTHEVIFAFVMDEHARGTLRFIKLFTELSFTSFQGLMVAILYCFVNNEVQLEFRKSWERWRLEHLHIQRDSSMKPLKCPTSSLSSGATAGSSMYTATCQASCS

With `CCCCCCCCCCCC(=O)N[C@@H](CCC(=O)NCCOCCOCC(=O)NCCOCCOCC(=O)NCCCC[C@H](NC(=O)[C@H](CCCN)NC(=O)[C@H](CC(=O)O)NC(=O)[C@H](CC(C)C)NC(=O)[C@](C)(CC(C)C)NC(=O)[C@@H](NC(=O)[C@H](CO)NC(=O)[C@H](Cc1ccncc1)NC(=O)[C@H](CC(=O)O)NC(=O)[C@H](CO)NC(=O)[C@@H](NC(=O)[C@](C)(Cc1ccccc1F)NC(=O)[C@@H](NC(=O)CNC(=O)[C@H](CCC(=O)O)NC(=O)C(C)(C)NC(=O)[C@@H](N)Cc1ccc(O)cc1)[C@@H](C)O)[C@@H](C)O)[C@@H](C)CC)C(=O)N[C@@H](C)C(=O)N[C@@H](CCC(N)=O)C(=O)NC(C)(C)C(=O)N[C@@H](CCCCNC(=O)COCCOCCNC(=O)COCCOCCNC(=O)CC[C@H](NC(=O)CCCCCCCCCCC)C(=O)O)C(=O)N[C@@H](Cc1ccccc1)C(=O)N[C@H](C(=O)N[C@H](CCC(=O)O)C(=O)N[C@@](C)(Cc1ccc(O)cc1)C(=O)N[C@@H](CC(C)C)C(=O)N[C@H](C(=O)N[C@@H](CCC(=O)O)C(=O)NCC(=O)NCC(N)=O)[C@@H](C)CC)[C@@H](C)CC)C(=O)O` [Example 295] (H-Y[Aib]EGT[αMePhe(2-F)]TSD[4Pal]SI[αMeL]LD[Orn]K([AEEA-AEEA-γGlu-Lauroyl])AQ[Aib]K([AEEA-AEEA-γGlu-Lauroyl])FI[dE][αMeY]LIEGG-NH2; N-terminus assumed), the concentration for a half-maximal effect (EC50) on hGLP-1R (setting [1]) is 10.4 nM; on hGLP-1R (setting [2]), 0.167 nM; at hGCGR (setting [1]), > 9950 nM; on hGCGR (setting [2]) it was > 9950 nM; at hGIPR (setting [1]), 1.09 nM; at hGIPR (setting [2]), 0.0141 nM. Moreover, the Emax at hGLP-1R (HEK293, cAMP, 37° C., percent of maximal response to GLP-1(7-36)NH2) was determined as 109%.

On to `CC[C@H](C)[C@H](NC(=O)[C@H](CC(C)C)NC(=O)[C@](C)(Cc1ccc(O)cc1)NC(=O)[C@@H](CCC(=O)O)NC(=O)[C@@H](NC(=O)[C@H](Cc1ccccc1)NC(=O)[C@H](CCC(=O)O)NC(=O)C(C)(C)NC(=O)[C@H](CCC(N)=O)NC(=O)[C@H](C)NC(=O)[C@H](CCCCNC(=O)COCCOCCNC(=O)COCCOCCNC(=O)[C@@H](N)CCCCNC(=O)CCCCCCCCCCCCC(=O)O)NC(=O)[C@H](CCCN)NC(=O)[C@H](CC(=O)O)NC(=O)[C@H](CC(C)C)NC(=O)[C@](C)(CC(C)C)NC(=O)[C@@H](NC(=O)[C@H](CO)NC(=O)[C@H](Cc1ccncc1)NC(=O)[C@H](CC(=O)O)NC(=O)[C@H](CO)NC(=O)[C@@H](NC(=O)[C@](C)(Cc1ccccc1F)NC(=O)[C@@H](NC(=O)CNC(=O)[C@H](CCC(=O)O)NC(=O)C(C)(C)NC(=O)[C@@H](N)Cc1ccc(O)cc1)[C@@H](C)O)[C@@H](C)O)[C@@H](C)CC)[C@@H](C)CC)C(=O)N[C@@H](CCC(=O)O)C(=O)NCC(=O)NCC(=O)N[C@@H](CCCCNC(=O)COCCOCCNC(=O)COCCOCCNC(=O)[C@@H](N)CCCCNC(=O)CCCCCCCCCCCCC(=O)O)C(N)=O` [Example 185] (H-Y[Aib]EGT[αMePhe(2-F)]TSD[4Pal]SI[αMeL]LD[Orn]K([AEEA-AEEA-εLys-C14 diacid])AQ[Aib]EFI[dE][αMeY]LIEGGK([AEEA-AEEA-εLys-C14 diacid])-NH2; N-terminus assumed), for which the EC50 on hGLP-1R (setting [1]) was 11.3 nM; on hGLP-1R (setting [3]), 0.419 nM; on hGCGR (setting [1]), > 9950 nM; on hGCGR (setting [3]), > 9950 nM; at hGIPR (setting [1]) it was 0.335 nM; at hGIPR (setting [3]), 0.018 nM. In addition, the Emax on hGLP-1R (HEK293, percent of maximal response to GLP-1(7-36)NH2, 37° C.) was found to be 95.1 ± 1.74%; at hGIPR (HEK293, 0.1% bovine casein and 1.0% human serum albumin, 37° C., percent of maximal response to GIP(1-42)NH2), 86.2%; on hGIPR (HEK293, percent of maximal response to GIP(1-42)NH2, 37° C., 0.1% bovine casein, arithmetic mean), 94.5 ± 0.288%.
